Legend:
Format in all cases: in vivo
[1] = test system: field corn (Zea mays L., var. Dekalb 535, CORN); assay: Pre-emerge test, crop safety; conditions: pre-emerge, rated 14 days after application, 0 = no damage, 100 = complete death
Summary of the method: (§1)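 Rating: 0–100 visual injury, 14 DAA. Application: acetone, 187 l/ha, 15–1000 g ai/ha, flat-fan track sprayer with nozzle 40–45 cm above soil or canopy. Post-emerge runs used 0.25% v/v surfactant on 2–3 leaf plants.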

[2] = test system: upland rice (Oryza sp., var. Tebonnet, RICE); assay: Pre-emerge test, crop safety; conditions: pre-emerge, rated 14 days after application, 0 = no damage, 100 = complete death
Summary of the method: as §1

[3] = test system: sicklepod (Cassia obtusifolia, CASOB); assay: Pre-emerge test, greenhouse herbicide activity screening; conditions: pre-emerge, rated 14 days after application, 0 = no damage, 100 = complete death
Summary of the method: (§2)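 Herbicidal damage is scored 0 (none) to 100 (complete plant death) two weeks after a simulated field spray. Rates span 15–1000 g ai/ha, delivered in acetone at 187 l/ha. For post-emergence treatments, plants have 2–3 leaves and the spray carries 0.25% v/v non-ionic surfactant.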

[4] = test system: johnsongrass (Sorghum halepense, SORHA); assay: as above; conditions: pre-emerge, rated 14 days after application, 0 = no damage, 100 = complete death
Summary of the method: as §2

[5] = test system: lambsquarters (Chenopodium album, CHEAL); assay: as above; conditions: pre-emerge, rated 14 days after application, 0 = no damage, 100 = complete death
Summary of the method: as §2

[6] = test system: barnyardgrass (Echinochloa crus-galli, ECHCG); assay: as above; conditions: pre-emerge, rated 14 days after application, 0 = no damage, 100 = complete death
Summary of the method: as §2

[7] = test system: green foxtail (Setaria viridis, SETVI); assay: as above; conditions: pre-emerge, rated 14 days after application, 0 = no damage, 100 = complete death
Summary of the method: as §2

[8] = test system: velvetleaf (Abutilon theophrasti, ABUTH); assay: as above; conditions: pre-emerge, rated 14 days after application, 0 = no damage, 100 = complete death
Summary of the method: as §2

[9] = test system: large crabgrass (Digitaria sanguinalis, DIGSA); assay: as above; conditions: pre-emerge, rated 14 days after application, 0 = no damage, 100 = complete death
Summary of the method: as §2

[10] = test system: ivyleaf morningglory (Ipomoea hederacea, IPOHE); assay: as above; conditions: pre-emerge, rated 14 days after application, 0 = no damage, 100 = complete death
Summary of the method: as §2

[11] = test system: redroot pigweed (Amaranthus retroflexus, AMARE); assay: as above; conditions: pre-emerge, rated 14 days after application, 0 = no damage, 100 = complete death
Summary of the method: as §1

[12] = test system: sicklepod (Cassia obtusifolia, CASOB); assay: Post-emerge test, greenhouse herbicide activity screening; conditions: phytotoxicity rating 0-100 (0 no damage, 100 complete death), 14 days after application
Summary of the method: as §1

[13] = test system: johnsongrass (Sorghum halepense, SORHA); assay: as above; conditions: phytotoxicity rating 0-100 (0 no damage, 100 complete death), 14 days after application
Summary of the method: as §1

[14] = test system: lambsquarters (Chenopodium album, CHEAL); assay: as above; conditions: phytotoxicity rating 0-100 (0 no damage, 100 complete death), 14 days after application
Summary of the method: as §1

[15] = test system: barnyardgrass (Echinochloa crus-galli, ECHCG); assay: as above; conditions: phytotoxicity rating 0-100 (0 no damage, 100 complete death), 14 days after application
Summary of the method: as §1

[16] = test system: redroot pigweed (Amaranthus retroflexus, AMARE); assay: as above; conditions: phytotoxicity rating 0-100 (0 no damage, 100 complete death), 14 days after application
Summary of the method: as §1

[17] = test system: green foxtail (Setaria viridis, SETVI); assay: as above; conditions: phytotoxicity rating 0-100 (0 no damage, 100 complete death), 14 days after application
Summary of the method: as §1

[18] = test system: velvetleaf (Abutilon theophrasti, ABUTH); assay: as above; conditions: phytotoxicity rating 0-100 (0 no damage, 100 complete death), 14 days after application
Summary of the method: as §1

[19] = test system: large crabgrass (Digitaria sanguinalis, DIGSA); assay: as above; conditions: phytotoxicity rating 0-100 (0 no damage, 100 complete death), 14 days after application
Summary of the method: as §1

[20] = test system: ivyleaf morningglory (Ipomoea hederacea, IPOHE); assay: as above; conditions: phytotoxicity rating 0-100 (0 no damage, 100 complete death), 14 days after application
Summary of the method: as §1

[21] = test system: field corn (Zea mays L., var. Dekalb 535, CORN); assay: Post-emerge test, crop safety; conditions: phytotoxicity rating 0-100 (0 no damage, 100 complete death), 14 days after application
Summary of the method: as §2

[22] = test system: upland rice (Oryza sp., var. Tebonnet, RICE); assay: Post-emerge test, crop safety; conditions: phytotoxicity rating 0-100 (0 no damage, 100 complete death), 14 days after application
Summary of the method: as §2

## Cn1c(C(F)(F)F)cc(=O)n(-c2c(F)cc(Cl)c(OCc3ccccc3)c2N)c1=O [Compound 1-22]
[1]; 63 g ai/ha
  Pre-emerge crop damage CORN (phytotoxicity rating, scale 0-100): 0
[1]; 250 g ai/ha
  Pre-emerge crop damage CORN (phytotoxicity rating, scale 0-100): 10
[2]; 63 g ai/ha
  Pre-emerge crop damage RICE (phytotoxicity rating, scale 0-100): 0
[2]; 250 g ai/ha
  Pre-emerge crop damage RICE (phytotoxicity rating, scale 0-100): 50
[3]; 63 g ai/ha
  Pre-emerge Herbicidal Activity CASOB (phytotoxicity rating, scale 0-100): 0
[3]; 250 g ai/ha
  Pre-emerge Herbicidal Activity CASOB (phytotoxicity rating, scale 0-100): 0
[4]; 63 g ai/ha
  Pre-emerge Herbicidal Activity SORHA (phytotoxicity rating, scale 0-100): 0
[4]; 250 g ai/ha
  Pre-emerge Herbicidal Activity SORHA (phytotoxicity rating, scale 0-100): 60
[5]; 63 g ai/ha
  Pre-emerge Herbicidal Activity CHEAL (phytotoxicity rating, scale 0-100): 95
[5]; 250 g ai/ha
  Pre-emerge Herbicidal Activity CHEAL (phytotoxicity rating, scale 0-100): 100
[6]; 63 g ai/ha
  Pre-emerge Herbicidal Activity ECHCG (phytotoxicity rating, scale 0-100): 0
[6]; 250 g ai/ha
  Pre-emerge Herbicidal Activity ECHCG (phytotoxicity rating, scale 0-100): 60
[7]; 63 g ai/ha
  Pre-emerge Herbicidal Activity SETVI (phytotoxicity rating, scale 0-100): 90
[7]; 250 g ai/ha
  Pre-emerge Herbicidal Activity SETVI (phytotoxicity rating, scale 0-100): 100
[8]; 63 g ai/ha
  Pre-emerge Herbicidal Activity ABUTH (phytotoxicity rating, scale 0-100): 100
[8]; 250 g ai/ha
  Pre-emerge Herbicidal Activity ABUTH (phytotoxicity rating, scale 0-100): 100
[9]; 63 g ai/ha
  Pre-emerge Herbicidal Activity DIGSA (phytotoxicity rating, scale 0-100): 0
[9]; 250 g ai/ha
  Pre-emerge Herbicidal Activity DIGSA (phytotoxicity rating, scale 0-100): 60
[10]; 63 g ai/ha
  Pre-emerge Herbicidal Activity IPOHE (phytotoxicity rating, scale 0-100): 0
[10]; 250 g ai/ha
  Pre-emerge Herbicidal Activity IPOHE (phytotoxicity rating, scale 0-100): 20
[11]; 63 g ai/ha
  Pre-emerge Herbicidal Activity AMARE (phytotoxicity rating, scale 0-100): 95
[11]; 250 g ai/ha
  Pre-emerge Herbicidal Activity AMARE (phytotoxicity rating, scale 0-100): 100
[12]; 63 g ai/ha
  Post-emerge Herbicidal Activity CASOB: 0
[12]; 250 g ai/ha
  Post-emerge Herbicidal Activity CASOB: 0
[13]; 63 g ai/ha
  Post-emerge Herbicidal Activity SORHA: 0
[13]; 250 g ai/ha
  Post-emerge Herbicidal Activity SORHA: 10
[14]; 63 g ai/ha
  Post-emerge Herbicidal Activity CHEAL: 40
[14]; 250 g ai/ha
  Post-emerge Herbicidal Activity CHEAL: 80
[15]; 63 g ai/ha
  Post-emerge Herbicidal Activity ECHCG: 0
[15]; 250 g ai/ha
  Post-emerge Herbicidal Activity ECHCG: 0
[16]; 63 g ai/ha
  Post-emerge Herbicidal Activity AMARE: 60
[16]; 250 g ai/ha
  Post-emerge Herbicidal Activity AMARE: 80
[17]; 63 g ai/ha
  Post-emerge Herbicidal Activity SETVI: 0
[17]; 250 g ai/ha
  Post-emerge Herbicidal Activity SETVI: 80
[18]; 63 g ai/ha
  Post-emerge Herbicidal Activity ABUTH: 100
[18]; 250 g ai/ha
  Post-emerge Herbicidal Activity ABUTH: 100
[19]; 63 g ai/ha
  Post-emerge Herbicidal Activity DIGSA: 0
[19]; 250 g ai/ha
  Post-emerge Herbicidal Activity DIGSA: 0
[20]; 63 g ai/ha
  Post-emerge Herbicidal Activity IPOHE: 40
[20]; 250 g ai/ha
  Post-emerge Herbicidal Activity IPOHE: 90
[21]; 63 g ai/ha
  Post-emerge Herbicidal Activity CORN (crop damage): 5
[21]; 250 g ai/ha
  Post-emerge Herbicidal Activity CORN (crop damage): 15
[22]; 63 g ai/ha
  Post-emerge Herbicidal Activity RICE (crop damage): 10
[22]; 250 g ai/ha
  Post-emerge Herbicidal Activity RICE (crop damage): 40

## Cc1c(Cl)cc(F)c(-n2c(=O)cc(C(F)(F)F)n(C)c2=O)c1N [Compound 1-37]
[1]; 63 g ai/ha
  Pre-emerge crop damage CORN (phytotoxicity rating, scale 0-100): 15
[1]; 250 g ai/ha
  Pre-emerge crop damage CORN (phytotoxicity rating, scale 0-100): 90
[2]; 63 g ai/ha
  Pre-emerge crop damage RICE (phytotoxicity rating, scale 0-100): 60
[2]; 250 g ai/ha
  Pre-emerge crop damage RICE (phytotoxicity rating, scale 0-100): 90
[3]; 63 g ai/ha
  Pre-emerge Herbicidal Activity CASOB (phytotoxicity rating, scale 0-100): 80
[3]; 250 g ai/ha
  Pre-emerge Herbicidal Activity CASOB (phytotoxicity rating, scale 0-100): 100
[4]; 63 g ai/ha
  Pre-emerge Herbicidal Activity SORHA (phytotoxicity rating, scale 0-100): 90
[4]; 250 g ai/ha
  Pre-emerge Herbicidal Activity SORHA (phytotoxicity rating, scale 0-100): 100
[5]; 63 g ai/ha
  Pre-emerge Herbicidal Activity CHEAL (phytotoxicity rating, scale 0-100): 100
[5]; 250 g ai/ha
  Pre-emerge Herbicidal Activity CHEAL (phytotoxicity rating, scale 0-100): 100
[6]; 63 g ai/ha
  Pre-emerge Herbicidal Activity ECHCG (phytotoxicity rating, scale 0-100): 90
[6]; 250 g ai/ha
  Pre-emerge Herbicidal Activity ECHCG (phytotoxicity rating, scale 0-100): 100
[7]; 63 g ai/ha
  Pre-emerge Herbicidal Activity SETVI (phytotoxicity rating, scale 0-100): 100
[7]; 250 g ai/ha
  Pre-emerge Herbicidal Activity SETVI (phytotoxicity rating, scale 0-100): 100
[8]; 63 g ai/ha
  Pre-emerge Herbicidal Activity ABUTH (phytotoxicity rating, scale 0-100): 100
[8]; 250 g ai/ha
  Pre-emerge Herbicidal Activity ABUTH (phytotoxicity rating, scale 0-100): 100
[9]; 63 g ai/ha
  Pre-emerge Herbicidal Activity DIGSA (phytotoxicity rating, scale 0-100): 100
[9]; 250 g ai/ha
  Pre-emerge Herbicidal Activity DIGSA (phytotoxicity rating, scale 0-100): 100
[10]; 63 g ai/ha
  Pre-emerge Herbicidal Activity IPOHE (phytotoxicity rating, scale 0-100): 100
[10]; 250 g ai/ha
  Pre-emerge Herbicidal Activity IPOHE (phytotoxicity rating, scale 0-100): 100
[11]; 63 g ai/ha
  Pre-emerge Herbicidal Activity AMARE (phytotoxicity rating, scale 0-100): 100
[11]; 250 g ai/ha
  Pre-emerge Herbicidal Activity AMARE (phytotoxicity rating, scale 0-100): 100
[12]; 63 g ai/ha
  Post-emerge Herbicidal Activity CASOB: 65
[12]; 250 g ai/ha
  Post-emerge Herbicidal Activity CASOB: 90
[13]; 63 g ai/ha
  Post-emerge Herbicidal Activity SORHA: 10
[13]; 250 g ai/ha
  Post-emerge Herbicidal Activity SORHA: 70
[14]; 63 g ai/ha
  Post-emerge Herbicidal Activity CHEAL: 95
[14]; 250 g ai/ha
  Post-emerge Herbicidal Activity CHEAL: 100
[15]; 63 g ai/ha
  Post-emerge Herbicidal Activity ECHCG: 30
[15]; 250 g ai/ha
  Post-emerge Herbicidal Activity ECHCG: 90
[16]; 63 g ai/ha
  Post-emerge Herbicidal Activity AMARE: 90
[16]; 250 g ai/ha
  Post-emerge Herbicidal Activity AMARE: 100
[17]; 63 g ai/ha
  Post-emerge Herbicidal Activity SETVI: 20
[17]; 250 g ai/ha
  Post-emerge Herbicidal Activity SETVI: 80
[18]; 63 g ai/ha
  Post-emerge Herbicidal Activity ABUTH: 100
[18]; 250 g ai/ha
  Post-emerge Herbicidal Activity ABUTH: 100
[19]; 63 g ai/ha
  Post-emerge Herbicidal Activity DIGSA: 10
[19]; 250 g ai/ha
  Post-emerge Herbicidal Activity DIGSA: 70
[20]; 63 g ai/ha
  Post-emerge Herbicidal Activity IPOHE: 100
[20]; 250 g ai/ha
  Post-emerge Herbicidal Activity IPOHE: 100
[21]; 63 g ai/ha
  Post-emerge Herbicidal Activity CORN (crop damage): 10
[21]; 250 g ai/ha
  Post-emerge Herbicidal Activity CORN (crop damage): 60
[22]; 63 g ai/ha
  Post-emerge Herbicidal Activity RICE (crop damage): 25
[22]; 250 g ai/ha
  Post-emerge Herbicidal Activity RICE (crop damage): 60
